Experimental findings from ChEMBL document CHEMBL1133971, “EDTA bis-(ethyl phenylalaninate): a novel transition metal-ion chelating hydroxyl radical scavenger with a potential anti-inflammatory role” (Bioorg Med Chem Lett, 2001) are described below.

By inhibition is commonly meant the change of the read-out against control, counted positive when it falls.

A short description of assay [1]: Antioxidant efficacy as assessed by the deoxyribose assay at a concentration of 1.040 mM.
Assay [2] in a line: Antioxidant efficacy as assessed by the deoxyribose assay in presence of EDTA (0.104 mM) and phenylalanine (0.208 mM).
A short description of assay [3]: Antioxidant efficacy as assessed by the deoxyribose assay at a concentration of 0.104 mM.
Assay [4] can be described thus: Antioxidant efficacy as assessed by the deoxyribose assay at a concentration of 5.2 mM.

`CCOC(=O)C(Cc1ccccc1)NC(=O)CN(CCN(CC(=O)O)CC(=O)NC(Cc1ccccc1)C(=O)OCC)CC(=O)O` (centres undefined): the inhibition worked out at 42% in assay [1], 2% in assay [2], 20% in assay [3] and 51% in assay [4].
